# Source: US20090221488A1, “Certain Compositions and Methods of Treatment” (priority 2005, published 2009)
# Read-outs that look alike come from different tables or passages of the source.
# Assays:
# [1] = system: A2780 human tumor xenograft
# [2] = system: MDA-MB-231 human tumor xenograft
# [3] = system: murine P388 lymphocytic leukaemia; experiment: P388 lymphocytic leukaemia model, dosing schedule study; format: in vivo
# From the text: More frequent administration of the compound was poorly tolerated and dictated a lower total dose. […] At doses equivalent to either ¼ or ½ the MTD, % ILS and NCK were reduced.
# [4] = system: rat, dog, rabbit and human blood; experiment: In vitro hemolysis on mixing with blood
# From the text: Hemolysis was not observed in any of the in vivo studies, nor has it been observed in the ongoing Phase I trial.
# [5] = system: H69 human tumor xenograft
# Mouse KSP = Mouse KSP (Mus musculus, UniProt Q6P9P6); experiment: Kinesin affinity, mouse KSP; format: binding
# Sequence of Mouse KSP (Q6P9P6 whole entry): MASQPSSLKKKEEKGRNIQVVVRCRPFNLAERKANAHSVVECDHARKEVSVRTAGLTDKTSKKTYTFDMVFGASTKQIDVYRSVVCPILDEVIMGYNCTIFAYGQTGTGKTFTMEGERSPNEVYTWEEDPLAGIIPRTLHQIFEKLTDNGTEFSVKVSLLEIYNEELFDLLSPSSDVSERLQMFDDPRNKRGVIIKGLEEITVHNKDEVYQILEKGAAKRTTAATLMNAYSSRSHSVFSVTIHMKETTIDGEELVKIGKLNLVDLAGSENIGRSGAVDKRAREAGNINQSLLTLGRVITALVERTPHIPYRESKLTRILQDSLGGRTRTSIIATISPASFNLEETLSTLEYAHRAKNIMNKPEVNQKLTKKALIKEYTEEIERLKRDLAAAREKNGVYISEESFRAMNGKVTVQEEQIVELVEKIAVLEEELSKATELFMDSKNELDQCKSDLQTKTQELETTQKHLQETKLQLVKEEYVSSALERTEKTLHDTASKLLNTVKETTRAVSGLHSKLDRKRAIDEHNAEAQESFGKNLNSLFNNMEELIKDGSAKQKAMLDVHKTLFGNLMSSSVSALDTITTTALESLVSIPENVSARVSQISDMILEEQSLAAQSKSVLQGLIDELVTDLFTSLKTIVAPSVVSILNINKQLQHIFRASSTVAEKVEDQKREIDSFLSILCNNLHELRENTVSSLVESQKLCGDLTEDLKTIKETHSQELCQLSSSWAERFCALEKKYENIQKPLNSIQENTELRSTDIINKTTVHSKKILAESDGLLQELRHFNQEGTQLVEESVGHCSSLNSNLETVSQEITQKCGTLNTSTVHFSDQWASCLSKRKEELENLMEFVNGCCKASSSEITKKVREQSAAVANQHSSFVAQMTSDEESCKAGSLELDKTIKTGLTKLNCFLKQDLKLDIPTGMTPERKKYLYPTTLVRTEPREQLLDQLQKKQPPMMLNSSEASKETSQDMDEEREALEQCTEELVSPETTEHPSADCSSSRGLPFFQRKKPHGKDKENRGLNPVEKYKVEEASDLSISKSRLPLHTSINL
# [6] = molecular target: human P-glycoprotein (Pgp) (Homo sapiens, UniProt P08183); details: MDCKII-MDR1 cells
# Sequence of human P-glycoprotein (Pgp) (P08183 whole entry): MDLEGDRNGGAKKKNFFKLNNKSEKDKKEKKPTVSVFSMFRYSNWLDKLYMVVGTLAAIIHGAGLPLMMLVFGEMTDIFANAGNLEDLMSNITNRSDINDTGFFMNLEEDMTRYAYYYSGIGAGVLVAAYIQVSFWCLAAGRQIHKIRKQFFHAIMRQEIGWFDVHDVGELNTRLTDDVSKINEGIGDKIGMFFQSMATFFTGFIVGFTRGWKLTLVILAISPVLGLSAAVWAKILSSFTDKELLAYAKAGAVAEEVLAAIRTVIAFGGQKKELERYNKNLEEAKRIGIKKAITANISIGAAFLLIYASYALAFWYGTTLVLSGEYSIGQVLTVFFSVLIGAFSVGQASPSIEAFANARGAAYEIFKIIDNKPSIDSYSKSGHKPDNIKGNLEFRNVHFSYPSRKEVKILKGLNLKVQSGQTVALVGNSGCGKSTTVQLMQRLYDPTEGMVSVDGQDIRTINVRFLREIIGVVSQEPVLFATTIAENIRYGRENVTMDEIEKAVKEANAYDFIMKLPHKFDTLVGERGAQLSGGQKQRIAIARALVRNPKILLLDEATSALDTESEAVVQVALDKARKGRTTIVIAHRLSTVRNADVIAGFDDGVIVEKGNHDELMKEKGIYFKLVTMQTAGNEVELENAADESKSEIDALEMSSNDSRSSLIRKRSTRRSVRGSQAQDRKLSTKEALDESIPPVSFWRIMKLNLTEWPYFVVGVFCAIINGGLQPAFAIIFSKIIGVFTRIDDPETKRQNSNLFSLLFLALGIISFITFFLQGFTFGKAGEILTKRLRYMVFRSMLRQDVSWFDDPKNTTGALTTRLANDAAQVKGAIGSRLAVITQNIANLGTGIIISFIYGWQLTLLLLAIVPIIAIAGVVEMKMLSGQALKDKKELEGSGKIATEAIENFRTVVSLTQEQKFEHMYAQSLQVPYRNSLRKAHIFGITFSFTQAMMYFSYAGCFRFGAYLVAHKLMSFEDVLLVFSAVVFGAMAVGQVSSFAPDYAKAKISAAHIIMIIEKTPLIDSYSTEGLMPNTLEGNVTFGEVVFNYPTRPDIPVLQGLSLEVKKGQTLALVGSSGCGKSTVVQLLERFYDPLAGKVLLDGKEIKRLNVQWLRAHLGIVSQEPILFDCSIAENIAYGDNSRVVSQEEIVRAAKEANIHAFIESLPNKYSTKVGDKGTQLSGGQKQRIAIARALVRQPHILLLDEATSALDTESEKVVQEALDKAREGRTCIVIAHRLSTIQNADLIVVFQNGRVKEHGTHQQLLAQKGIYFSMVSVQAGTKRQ
# MX1 = experiment: Cellular activity, MX1; format: cell-based
# [7] = system: MV 522 human lung carcinoma xenograft; experiment: MV 522 xenograft tumor model; format: in vivo, nude mice; details: i.p. q4d×3, up to the MTD
# [8] = In vivo rat micronucleus study; details: all doses tested (≧3 mg/m^2 administered daily×2)
# From the text: (§1) Positive findings are consistent with the expected pharmacology of Compound A.
# [9] = system: SK-MES human tumor xenograft
# [10] = Preclinical toxicology in rats, 1, 6 and 24-hr IV infusion; format: in vivo, rat; details: for dose at which mortality occurred: 24-hr infusion
# From the text: Transient drug-related findings occurred at all doses, but severity and incidence were generally dose proportional and dependent on the duration of infusion. Most consistent findings included hematopoeitic toxicity (depletion in bone marrow and thymus and associated hematologic changes) and enteropathy (necrosis/regeneration of intestinal crypt epithelium and villus atrophy and body weight loss or decrease in body weight gain). Microscopic changes (necrosis, apoptosis and/or cellular degeneration) were also evident in liver, mammary glands, testes and epididymus, and at ≧36 mg/m^2, increased mitotic figures in many tissues. All drug-related toxicities completely reversed 2 weeks after dosing, with the exception of degenerative testicular changes at ≧18 mg/m^2. In the 1 to 6-hr infusion studies, there was no mortality, however based on the severity of hematopoietic and gastrointestinal toxicities, the MTD was 72 mg/m^2. When the infusion was increased to 24-hr, mortality occurred at 18 mg/m^2 after a single dose and at 12 mg/m^2 after repeated weekly dosing.
# MV522 = experiment: Cellular activity, MV522; format: cell-based
# [11] = system: OVCAR-3 human tumor xenograft
# [12] = system: MCF-7 human tumor xenograft
# [13] = system: broad spectrum of tumor cell lines; experiment: Cytotoxic activity in tumor cell lines; format: cell-based
# [14] = system: HT 29 chemo-refractory colon carcinoma xenograft
# [15] = Preclinical toxicology in dogs, 1-hr IV infusion; format: in vivo, dog
# Protocol: Doses up to 40 mg/m^2 were tested in a single dose-range finding study and doses of 5, 10 and 20 mg/m^2 were tested in a 3-week (once weekly) toxicology study. Drug-related findings occurred at all dose levels, but severity and incidence were generally dose-proportional. […] In dogs given ≧10 mg/m^2, clinical observations of gastrointestinal (GI) disturbances included vomiting/retching, fecal abnormalities, hypoactivity, anorexia and body weight losses. […] Based on these findings, the highest non-severely toxic dose in the dog is 10 mg/m^2.
# [16] = system: MX-1 mammary carcinoma xenograft; details: i.p. q4d×3
# [17] = system: Colo205 colon carcinoma xenograft; experiment: Colo205 xenograft tumor model; format: in vivo, nude mice
# [18] = Tolerability (MTD) of Compound A and bortezomib in nude mice; format: in vivo
# Protocol: (§2) Finally, tolerability and efficacy studies were conducted in which HT29 tumors maintained by serial passage were implanted subcutaneously in 9-10 weeks old female athymic no/nu mice (Harlan) Twenty-one (21) days post-implantation, when tumors reached 63-196 mm^3, mice were randomized into cohorts of […] with mean tumor volumes ˜100 mm^3. […] Drugs were delivered on the indicated schedules at 10 ml/kg by i.p. injection, except paclitaxel, which was administered by intravenous injection. Tumors were measured twice weekly and mice euthanized when tumor reached 1000 mm^3 or at day 59. Mice were weighed twice weekly. Acceptable toxicity was defined as body weight loss of <20% and ≦1 treatment-related death among ten treated animals. Toxicity exceeding these levels was considered above MTD.
# Colo205 = experiment: Cellular activity, Colo205; format: cell-based
# HT29 tumor xenografts = experiment: HT29 tumor xenograft efficacy, Compound A and bortezomib alone and combined; format: in vivo, female athymic nu/nu mice; details: for TGD, second arm, single agents: 1.5 mg/kg bortezomib and 10 mg/kg Compound A as printed; for mean tumor growth delay (TGD): 1.5 mg/kg bortezomib, 10 mg/kg Compound A, q4d×3; for mean time to endpoint (TTE), tumor volume=1000 mm^3: single agents (at MTD for bortezomib and Compound A)
# Protocol: as §2
# (§3) Anti-tumor activity of sequenced (24 hour offset, q4d×3) and simultaneous administration was explored in HT29 tumor xenografts.
# as §3
# Other kinesins = experiment: Kinesin affinity, other kinesins; format: binding
# In vitro Ames test = format: cell-based
# From the text: as §1
# [19] = Dose-escalation Phase I study in patients with solid tumors; format: in vivo
# From the text: In this study, the ANC generally achieved a nadir at Day 7-8 and had completely recovered by Day 15.
# mouse lymphoma = experiment: Mouse lymphoma mutagenicity assay; format: cell-based; details: in vitro mouse lymphoma mutagenicity assay
# From the text: as §1
# HT29 = experiment: Cellular activity, HT29; format: cell-based
# SKOV3 = experiment: Cellular activity, SKOV3; format: cell-based
# P388 (murine) = experiment: Cellular activity, P388; format: cell-based
# [20] = molecular target: P-glycoprotein (Pgp, MDR1) (Homo sapiens, UniProt P08183); experiment: in vitro
# Sequence of P-glycoprotein (Pgp, MDR1) (P08183 whole entry): as above
# [21] = i.p., q4d×3 schedule, at the MTD
# [22] = rat, 1 to 6-hr infusion studies
# [23] = Q21 days, patients with solid tumors
smiles,measurement,setting,value
"Cc1ccc(C(=O)N(CCCN)[C@@H](c2oc3cc(Cl)ccc3c(=O)c2Cc2ccccc2)C(C)C)cc1 [Compound A, N-(3-Aminopropyl)-N—[(R)-1-3-benzyl-7-chloro-4-oxo-4H-chromen-2-yl-2-methyl-propyl]-4-methyl-benzamide]",single agent activity against advanced xenograft,[1],tumor growth delay
same,single agent activity against advanced xenograft,[2],tumor growth delay
same,% ILS and NCK,[3]; doses equivalent to ¼ or ½ the MTD,reduced
same,mean (±SEM) % increase in lifespan (ILS),[3]; [21],156±10%
same,net cell kill (NCK),[3]; [21],2.9±0.5 logs
same,hemolysis,[4]; at 0.3 mg/mL,no hemolysis was observed
same,hemolytic concentration,"[4]; mixed with rat, dog, rabbit and human blood",≥ 0.6 mg/mL
same,single agent activity against advanced xenograft,[5],complete and partial regressions
same,Ki,Mouse KSP,0.12 nM
same,Pgp substrate,[6],is a Pgp substrate
same,average P7.4,[6],2.5 ×10⁻⁶ cm/s
same,passive membrane permeability,[6],< 5 ×10⁻⁶ cm/s
same,IC50,MX1,0.06 nM
same,tumor response,[7],refractory
same,micronucleus result,[8],positive results as an aneugen
same,single agent activity against advanced xenograft,[9],complete and partial regressions
same,dose with degenerative testicular changes not reversed 2 weeks after dosing,[10]; rat IV infusion,≥ 18 mg/m^2
same,dose with increased mitotic figures in many tissues,[10]; rat IV infusion,≥ 36 mg/m^2
same,MTD,[10]; [22],72 mg/m^2
same,mortality,[10]; [22],no mortality
same,dose at which mortality occurred,"[10]; rat, after a single dose",18 mg/m^2
same,dose at which mortality occurred,"[10]; rat, after repeated weekly dosing",12 mg/m^2
same,IC50,MV522,1.7 nM
same,single agent activity against advanced xenograft,[11],complete and partial regressions
same,single agent activity against advanced xenograft,[12],complete and partial regressions
same,cytotoxic activity,[13],less than 2 nM
same,single agent activity against advanced xenograft,[14]; HT-29,tumor growth delay
same,tumor growth delay (T-C1000),"[14]; i.p. q4d×3, time differential to tumor volume 1000 mm^3",25 days
same,animals euthanized in moribund condition,[15]; Day 4 after a single 1-hr IV infusion of 20 mg/m^2,One of 10 dogs
same,dose with clinical observations of gastrointestinal (GI) disturbances,"[15]; dog, 1-hr IV infusion",≥ 10 mg/m^2
same,highest non-severely toxic dose,"[15]; dog, 1-hr IV infusion, once weekly for 3 weeks",10 mg/m^2
same,dose with testicular germinal epithelial abnormalities,[15]; male dogs,20 mg/m^2
same,tumor regressions,[16],did not induce any tumor regressions
same,tumor growth delay (T-C1000),[16]; time differential to tumor volume 1000 mm^3,10 days
same,single agent activity against advanced xenograft,[17]; Colo205,complete regressions
same,tumor regression,"[17]; i.p. q4d×3, at the MTD",complete tumor regressions
same,tumor regression,"[17]; i.p. q4d×3, doses as low as 25% of the MTD, majority of animals",Partial tumor regressions
same,single agent MTD (q4d×3),[18]; i.p.,about 10 mg/kg
same,IC50,Colo205,0.07 nM
same,"TGD, second arm, single agents",HT29 tumor xenografts,12 days
same,mean tumor growth delay (TGD),HT29 tumor xenografts,24 days
same,"mean time to endpoint (TTE), tumor volume=1000 mm^3",HT29 tumor xenografts,did not differ significantly from untreated control animals
same,Ki,Other kinesins,> 70000 nM
same,genotoxic activity,In vitro Ames test,did not show evidence of genotoxic activity
same,"patients with dose-limiting toxicity (Grade 3 hypophosphatemia, not thought to be drug-related)",[19]; 4 mg/m^2,1 of the first 6 patients
same,day of ANC nadir,"[19]; Phase I, Q21 days",7 to 8 days
same,day of ANC recovery,"[19]; Phase I, Q21 days",≤ 15 days
same,"neurotoxicity, mucositis, thrombocytopenia, alopecia, and nausea vomiting requiring pre-medication","[19]; Phase I, one hour infusion every 21 days",have not been observed
same,most commonly occurring dose-limiting toxicity,[19]; [23],"Prolonged (≧5 days), reversible neutropenia"
same,presumptive maximum tolerated dose (MTD),[19]; [23],4 mg/m^2
same,dose eliciting Grade 4 neutropenia lasting ≧5 days,[19]; single one hour infusion every 21 days,≥ 5 mg/m^2
same,genotoxic activity,mouse lymphoma,did not show evidence of genotoxic activity
same,IC50,HT29,1.9 nM
same,IC50,SKOV3,0.2 nM
same,IC50,P388 (murine),14.4 nM
"Cc1ccc(C(=O)N(CCCN)[C@@H](c2nc3cc(Cl)ccc3c(=O)n2Cc2ccccc2)C(C)C)cc1 [ispinesib, reference compound]",Ki,Mouse KSP,0.76 nM
same,IC50,"MX1; Homo sapiens, MX1",2.8 nM
same,IC50,MV522; MV522,9.7 nM
same,IC50,"Colo205; Homo sapiens, COLO 205",0.18 nM
same,Ki,Other kinesins,> 70000 nM
same,IC50,"HT29; Homo sapiens, HT-29",1.2 nM
same,IC50,"SKOV3; Homo sapiens, SK-OV-3",1 nM
same,IC50,"P388 (murine); Mus musculus, P388",19.7 nM
COc1cc2c(cc1OC)CN(CCc1ccc(NC(=O)c3cccc4c(=O)c5cccc(OC)c5[nH]c34)cc1)CC2 [GF120918A],activity at 2 μM,[20],~30%
CC(C)C[C@H](NC(=O)[C@H](Cc1ccccc1)NC(=O)c1cnccn1)B(O)O [bortezomib],MTD,"[18]; female, athymic nu/nu (nude), mouse, in vivo, ip, read-out: single agent MTD (q4d×3)",~1.5 mg/kg
same,"TGD, second arm, single agents",HT29 tumor xenografts,9 days
same,mean tumor growth delay (TGD),HT29 tumor xenografts,9 days
same,"mean time to endpoint (TTE), tumor volume=1000 mm^3",HT29 tumor xenografts,did not differ significantly from untreated control animals
CC(=O)O[C@H]1C(=O)[C@@]2(C)[C@H]([C@H](OC(=O)c3ccccc3)[C@]3(O)C[C@H](OC(=O)[C@H](O)[C@@H](NC(=O)c4ccccc4)c4ccccc4)C(C)=C1C3(C)C)[C@]1(OC(C)=O)CO[C@@H]1C[C@@H]2O [paclitaxel],"mean time to endpoint (TTE), tumor volume=1000 mm^3",HT29 tumor xenografts,59 days
